Reference: PMC9238271, “The quorum sensing peptide EntF* promotes colorectal cancer metastasis in mice: a new factor in the host-microbiome interaction” (BMC Biology, 2022)

What was measured:
[1] = EntF production in germ-free mice: EntF* in colon content and serum; format: in vivo, germ-free female C57BL6 mice
Method: Fifty microliters of serum were mixed with 150 μL 0.5% formic acid in acetonitrile. After sonication for 5 min, samples were vortexed for 5 s, then heated for 30 s at 100 °C. The solution was vortexed and centrifuged for 20 min at 20,000g at 4 °C. The supernatant was purified using solid phase extraction (SPE) on HyperSep C18 plates (Thermo Fisher Scientific, Belgium), previously conditioned with acetonitrile and equilibrated with 75% acetonitrile in water, containing 0.375% formic acid. After loading 150 μL of each sample, 120 μL eluent were collected and organic solvents evaporated using nitrogen (1 L/min) for 5 min. The resulting samples were further diluted with 30 μL of BSA-based anti-adsorption solution, and analyzed by LC-MS.
For EntF and EntF* colon content analysis, 50 mg of colon content were suspended in 100 μL of a 2% hydrochloric acid solution, vortexed and sonicated for 30 s. The suspension was centrifuged for 1 min at 3000g, and 50 μL of the supernatant was heated at 100 °C for 1 min and cooled on ice for 1 min. Samples were centrifuged again for 1 min at 10,000g, and 30 μL of supernatant was added to a 900 μL of a 3% DMSO solution in acetonitrile acidified with 0.1% formic acid (equilibration solution). Nine hundred microliters of the diluted samples was loaded on a HILIC amide SPE MonoSpin column previously conditioned with acetonitrile and equilibrated with the equilibration solution. Samples were eluted using a mixture of 75/20/5 (V/V/V) H2O/acetonitrile/DMSO acidified with 0.1% formic acid.
(§1) EntF* was detected and quantified on a Waters Acquity® UPLC H-class system, connected to a Waters Xevo™ TQ-S triple quadrupole mass spectrometer with electrospray ionization (operated in positive ionization mode). Autosampler tray and column oven were kept at 10 ± 5 °C and 60 ± 5 °C, respectively. Chromatographic separation was achieved on a Waters Acquity® UPLC BEH Peptide C18 column (300 Å, 1.7 μm, 2.1 mm × 100 mm). The mobile phases consisted of 93/2/5 water/acetonitrile/DMSO (V/V/V) containing 0.1% formic acid (mobile phase A) and 2/93/5 water/acetonitrile/DMSO (V/V/V) containing 0.1% formic acid (mobile phase B), and the flow rate was set to 0.5 mL/min. A 10-μL aliquot from each sample was injected. The gradient program started with 80% of mobile phase A for 1 min, followed by a linear gradient to 40% of mobile phase A for 3.5 min. Gradient was then changed to 14.2% mobile phase A at 5 min, followed by a 1 min equilibration, before starting conditions were applied. EntF* retention time was between 4.25 and 4.45 min.
Mice were obtained from the Ghent Germfree and Gnotobiotic mouse facility (LA1400637), maintained in a sterile environment under controlled conditions (light–dark cycle with light from 7:00 h to 17:00 h, temperature 21–25 °C, and humidity 45–65%). Twelve germ-free female C57BL6 mice were divided into 3 groups and each group (n = 4) was kept in a separate cage. At day 0, the placebo group was treated with the cell medium (BHI), the control group received a mixture of 3 EntF-negative E. faecium strains (NCIMB 10415; W54 and LMG S-28935 each 10^8 CFU per strain) suspended in 300 μL of BHI, while the test group received a mixture of 3 EntF-producing E. faecium strains (LMG 23236; T-110 and ATCC 8459 each 10^8 CFU/strain) suspended in 300 μL of BHI. […] Serum samples were stored at − 80 °C and subsequently analyzed for the presence of EntF* using LC1-MS1. […] Samples were further analyzed for the presence of EntF* using LC1-MS1.

[2] = In vitro metabolization of EntF: formation of EntF* in feces homogenate; format: in vitro ADME, C57BL/6 female mice; details: for EntF* Conc / EntF* without metabolisation, Conc / EntF*/EntF %: Feces, initial concentration EntF 31.82 µM
Method: Krebs-Henseleit (KH) buffer (Sigma-Aldrich, Belgium) was prepared by dissolving the powdered medium in 900 mL water while stirring. Once the powder was completely dissolved, 0.3790 g CaCl2•2H2O and 2.098 g NaHCO3 were added to the solution. NaOH or HCl was used to adjust the pH to 7.4. The solution was brought to final volume (1000 mL) with ultrapure water.
Feces homogenates were prepared, after collecting fecal material from two untreated C57BL/6 female mice after cervical dislocation, by using the same procedures employed for colon tissue homogenate preparation. Before use, the homogenate was diluted to a final protein concentration of 0.6 mg/mL.
To avoid the absorption of EntF* onto plasticware and glassware, all tubes and containers were coated with a BSA-based anti-adsorption solution before use.
Five hundred microliters of tissue homogenate were mixed with 400 μL of pre-warmed KH buffer. Then, 100 μL of KH buffer (blank) or 1 mg/mL EntF peptide solution (test) were added to the diluted homogenate and incubated at 37 °C. […] After centrifugation at 16,000g for 30 min at 5 °C, supernatants were analyzed by LC1-MS1 for EntF* quantification.
as §1
An optimized capillary voltage of 3.00 kV, a cone voltage of 20.00 V, and a source offset of 50.0 V were used. Acquisition was done in the MRM mode. The selected precursor ion for EntF* was m/z 865.7 with two selected product ions at m/z 202.08 (36 eV, b2 fragment) as quantifier and m/z 315.17 (31 eV, b3 fragment) as qualifier.

CC(C)C[C@@H]1NC(=O)[C@H](CO)NC(=O)[C@H](Cc2ccccc2)NC(=O)[C@H](C(C)C)NC(=O)[C@@H](NC(=O)[C@H](CCC(=O)O)NC(=O)[C@@H](NC(=O)[C@H](CC(C)C)NC(=O)[C@H](CC(N)=O)NC(=O)[C@@H](N)CO)C(C)C)CSSC[C@@H](C(=O)N[C@@H](CC(N)=O)C(=O)O)NC(=O)[C@H](CCCCN)NC(=O)[C@H](CCCCN)NC(=O)[C@H](Cc2ccccc2)NC1=O (single isomer, unassigned) [EntF*]
tissue level at time molar at 96 h ([1]; female, C57BL6, mouse, colon content, germ-free mice four days after oral gavage of 3 EntF-producing E. faecium strains (10^8 CFU/strain), LoD 1.9 pmol/g, LC1-MS1, mean ± SEM, n = 4, read-out: EntF* concentration in colon content): 0.01 ± 0.0032 nmol/g | EntF* in serum of the test group ([1]; germ-free mice four days after oral gavage of EntF-producing E. faecium strains, LC1-MS1): detected | EntF* in feces, Tot. Av. ([1]; gnotobiotic mice, feces, mean of 4 test mice): 9.726 pmol/g | EntF* serum concentration, Maximum Likelihood Function estimate ^µ ([1]; gnotobiotic mice, serum, 4 test mice, censored at yL 80 pM): 90.7384 pM | EntF* serum concentration, average ([1]; gnotobiotic mice, serum, average of the 3 test mice above LoD): 97.3333 pM | EntF* Conc ([2]; Time 0): 0.00 µM | EntF* without metabolisation, Conc ([2]; Time 0): 0.0 µM | EntF*/EntF % ([2]; Time 0): 0.0% | EntF* Conc ([2]; Time 1): 0.50 µM | EntF* without metabolisation, Conc ([2]; Time 1): 0.529 µM | EntF*/EntF % ([2]; Time 1): 1.7% | EntF* Conc ([2]; Time 5): 3.00 µM | EntF* without metabolisation, Conc ([2]; Time 5): 3.9 µM | EntF*/EntF % ([2]; Time 5): 12.4% | EntF* Conc ([2]; Time 10): 2.69 µM | EntF* without metabolisation, Conc ([2]; Time 10): 4.6 µM | EntF*/EntF % ([2]; Time 10): 14.5% | EntF* Conc ([2]; Time 30): 2.33 µM | EntF* without metabolisation, Conc ([2]; Time 30): 11.8 µM | EntF*/EntF % ([2]; Time 30): 37.1% | Formation rate, Faeces, Average ([2]; mouse feces homogenate, Krebs-Henseleit buffer pH 7.4, 37 °C, LC1-MS1, average of X1-X4): 1.71 %*min-1 | Formation rate, Faeces ([2]; mouse feces homogenate, Krebs-Henseleit buffer pH 7.4, 37 °C, LC1-MS1, replicate X1): 1.6635 %*min-1 | Formation rate, Faeces ([2]; mouse feces homogenate, Krebs-Henseleit buffer pH 7.4, 37 °C, LC1-MS1, replicate X2): 2.4748 %*min-1 | Formation rate, Faeces ([2]; mouse feces homogenate, Krebs-Henseleit buffer pH 7.4, 37 °C, LC1-MS1, replicate X3): 1.4512 %*min-1 | Formation rate, Faeces ([2]; mouse feces homogenate, Krebs-Henseleit buffer pH 7.4, 37 °C, LC1-MS1, replicate X4): 1.2367 %*min-1
